Structures are written as SMILES. The source made the active and inactive calls. The calls are words filed in the database; no cut-off is given here.

The assay concerns HL-60. Nature of the assay: Cytotoxicity against human HL60 cells assessed as inhibition of cell proliferation at <10 uM after 48 hrs by MTT assay. The format is functional, cell-based.
Regarding `Cc1cc2c3c(c1Br)O[C@]14N[C@]3(Oc3c(Br)c(C)cc(c31)[C@H]1[C@@H](C(C)C)CC[C@@]1(C)CC4=O)C(=O)C[C@]1(C)CC[C@H](C(C)C)[C@H]21`, the inhibition entry was “inactive”.

With `COC(=O)[C@@]1(O)C(=O)[C@]2(C)CC[C@H](C(C)C)[C@@H]2c2cc(C)cc(O)c21`, the inhibition entry was “inactive”. As to `Cc1cc(O)c2c(c1)[C@H]1[C@@H](C(C)C)CC[C@@]1(C)C(=O)C2=O`, the inhibition entry was “inactive”. For the molecule `COC(=O)c1c([C@H]2[C@@H](C(C)C)CC[C@@]2(C)CC(=O)O)cc(C)c(Br)c1O`, the inhibition entry is “inactive”. For `Cc1cc(O)c2c(c1)[C@H]1[C@@H](C(C)C)CC[C@@]1(C)[C@@H](O)[C@H](O)C2=O` the value was “inactive”; for `COC(=O)[C@]1(O)C(=O)c2c(O)c(Br)c(C)c(Br)c2[C@H]2[C@@H](C(C)C)CC[C@]21C`, “inactive”; for `Cc1cc([C@H]2[C@@H](C(C)C)CC[C@@]2(C)CC(=O)O)c(C#N)c(O)c1Br`, “inactive”.

For the origin of these results see ChEMBL document CHEMBL4138276, “Hamigerans R and S: Nitrogenous Diterpenoids from the New Zealand Marine Sponge Hamigera tarangaensis” (J Nat Prod, 2018).
